For one test, the target named is cMET (Homo sapiens, UniProt P08581). In words: Evaluation of inhibitory activity against MET (TR-FRET kinase assay). As to conditions: cMET protein, TK peptide substrate. The test is classed as biochemical. The method, then:
In addition, in order to measure the enzyme activity inhibition for cMET, the evaluation was performed in the same manner as the enzyme activity inhibition measurement experiment for RON.
Specifically, the compound was prepared to a concentration of 1 mM in 100% DMSO and was diluted 10 times in a stepwise manner through 3-fold dilution. The compound (2 ul) diluted in a stepwise manner was added to a 96-well-plate containing 48 ul of a 1× kinase reaction buffer (50 mM HEPES (pH 7.4), 0.05% BSA, 0.005% Tween-20, 1 mM DTT, 0.5 mM MnCl2, 20 mM MgCl2).
The cMET protein was diluted to a concentration of 263 nM in a cMET storage buffer (50 mM Tris-HCl (pH 7.5), 150 mM NaCl, 0.05% Brij35, 1 mM DTT, 10% Glycerol), and then diluted again to a concentration of 2 nM in a 1× kinase reaction buffer. As a substrate cocktail, a MET-specific substrate mixed solution (5 uM TK peptide, 10 mM ATP) was prepared at a concentration 2 times the final reaction concentration.
(§1) Thereafter, a 384-well-plate was prepared, and 2.5 μl of each of the diluted compounds of Examples was added to a corresponding well of experimental group wells, and 2.5 μl of a 4% DMSO solution was dispensed into high control wells and low control wells.
(§2) Thereafter, 2.5 μL of 2 nM cMET was dispensed into each of the high control wells and the experimental group wells, and 2.5 μL of the 1×kinase reaction buffer was added to the low control wells, and all the wells were centrifuged at room temperature for 40 seconds at 1,000 RPM, and then incubated at room temperature for 20-30 minutes. Then, 5 uL of the substrate cocktail (2×) was dispensed into each well, and all the wells were centrifuged at room temperature for 40 seconds at 1,000 RPM, and then incubated at room temperature for 60 minutes. Thereafter, 5 uL of 90 mM EDTA was added to each well to terminate the reaction, and all the wells were then incubated again at room temperature for 5 minutes. Thereafter, 5 uL of a 4× phosphotyrosine antibody (Perkin Elmer) containing europium was added to each well, and all the wells were then incubated at room temperature for 60 minutes. After the incubation, the 384-well-plate was read with the Vison plate reader. In this case, the excitation wavelength was 340 nm, and the emission wavelength was 620 nm and 665 nm. The IC50 value of each compound of Examples was derived using the GraphPd Prism7 program.

Another test deals with RON (Homo sapiens, UniProt Q04912). The test is described as follows: Evaluation of inhibitory activity against RON (TR-FRET kinase assay). It is filed as biochemical. Conditions: RON protein, ULight-labeled Poly GT substrate. The method, then:
In order to measure the inhibitory activity of each of the compounds of Examples against RON, the IC50 of each of the compounds was measured using Time-resolved fluorescence energy transfer (TR-FRET).
Specifically, the compound was prepared to a concentration of 1 mM in 100% DMSO and was diluted 10 times in a stepwise manner through 3-fold dilution. The compound (2 ul) diluted in a stepwise manner was added to a 96-well-plate containing 48 ul of a 1× kinase reaction buffer (50 mM HEPES (pH 7.4), 0.01% Tween-20, 5 mM DTT, 0.5 mM Na3VO4, 2 mM EGTA, 10 mM MgCl2).
The RON protein was diluted to a concentration of 49.3 nM in a RON storage buffer (50 mM Tris-HCl (pH 7.5), 150 mM NaCl, 0.5 mM EDTA, 0.02% Triton X-100), and then diluted again to a concentration of 0.4 nM in a 1×kinase reaction buffer. As a substrate cocktail, a RON-specific substrate mixed solution (40 uM ULight-labeled Poly GT, 100 nM ATP) was prepared at a concentration 2 times the final reaction concentration.
as §1
as §2, with “of 0.4” for “of 2”, “nM RON” for “nM cMET”, “the 1× kinase” for “the 1×kinase”, “of 30” for “of 90”

Some results are limits rather than exact numbers.

Sequence of cMET (P08581 25-1390): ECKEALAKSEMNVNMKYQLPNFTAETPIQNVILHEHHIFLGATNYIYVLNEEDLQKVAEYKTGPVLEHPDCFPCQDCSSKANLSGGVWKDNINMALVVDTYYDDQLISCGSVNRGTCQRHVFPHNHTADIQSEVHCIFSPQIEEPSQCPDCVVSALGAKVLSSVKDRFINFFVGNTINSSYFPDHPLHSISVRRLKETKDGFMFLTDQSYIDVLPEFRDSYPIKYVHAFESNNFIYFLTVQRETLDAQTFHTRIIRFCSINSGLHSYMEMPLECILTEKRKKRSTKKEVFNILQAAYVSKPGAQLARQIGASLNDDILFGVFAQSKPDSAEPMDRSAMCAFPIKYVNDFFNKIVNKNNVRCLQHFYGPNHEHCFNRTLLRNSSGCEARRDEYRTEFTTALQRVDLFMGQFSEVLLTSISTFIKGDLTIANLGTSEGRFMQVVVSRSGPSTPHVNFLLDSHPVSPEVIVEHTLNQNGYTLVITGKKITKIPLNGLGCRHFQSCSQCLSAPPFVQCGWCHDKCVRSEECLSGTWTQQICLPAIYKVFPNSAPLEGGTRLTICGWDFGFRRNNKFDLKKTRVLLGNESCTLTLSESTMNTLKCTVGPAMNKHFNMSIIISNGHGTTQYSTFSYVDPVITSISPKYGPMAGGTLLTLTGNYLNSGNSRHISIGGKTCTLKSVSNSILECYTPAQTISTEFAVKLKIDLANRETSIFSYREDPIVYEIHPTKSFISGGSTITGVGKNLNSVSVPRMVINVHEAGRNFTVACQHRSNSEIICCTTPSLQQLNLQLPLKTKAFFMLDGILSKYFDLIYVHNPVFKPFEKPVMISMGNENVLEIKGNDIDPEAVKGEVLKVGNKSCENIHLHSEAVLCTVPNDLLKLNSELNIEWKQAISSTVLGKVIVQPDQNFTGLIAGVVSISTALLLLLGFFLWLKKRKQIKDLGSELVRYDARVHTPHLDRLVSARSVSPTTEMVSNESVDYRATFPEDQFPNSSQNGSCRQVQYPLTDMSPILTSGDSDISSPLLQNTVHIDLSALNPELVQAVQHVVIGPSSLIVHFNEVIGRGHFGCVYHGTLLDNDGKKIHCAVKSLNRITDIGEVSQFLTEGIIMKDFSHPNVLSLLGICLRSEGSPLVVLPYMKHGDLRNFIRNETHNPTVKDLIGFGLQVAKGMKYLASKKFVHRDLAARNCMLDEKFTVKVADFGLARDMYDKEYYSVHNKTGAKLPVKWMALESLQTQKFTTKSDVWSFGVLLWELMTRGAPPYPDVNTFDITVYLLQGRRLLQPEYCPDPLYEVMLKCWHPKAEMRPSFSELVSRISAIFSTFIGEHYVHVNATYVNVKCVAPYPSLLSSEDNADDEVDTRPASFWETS
Sequence of RON (Q04912 25-1400, species assumed): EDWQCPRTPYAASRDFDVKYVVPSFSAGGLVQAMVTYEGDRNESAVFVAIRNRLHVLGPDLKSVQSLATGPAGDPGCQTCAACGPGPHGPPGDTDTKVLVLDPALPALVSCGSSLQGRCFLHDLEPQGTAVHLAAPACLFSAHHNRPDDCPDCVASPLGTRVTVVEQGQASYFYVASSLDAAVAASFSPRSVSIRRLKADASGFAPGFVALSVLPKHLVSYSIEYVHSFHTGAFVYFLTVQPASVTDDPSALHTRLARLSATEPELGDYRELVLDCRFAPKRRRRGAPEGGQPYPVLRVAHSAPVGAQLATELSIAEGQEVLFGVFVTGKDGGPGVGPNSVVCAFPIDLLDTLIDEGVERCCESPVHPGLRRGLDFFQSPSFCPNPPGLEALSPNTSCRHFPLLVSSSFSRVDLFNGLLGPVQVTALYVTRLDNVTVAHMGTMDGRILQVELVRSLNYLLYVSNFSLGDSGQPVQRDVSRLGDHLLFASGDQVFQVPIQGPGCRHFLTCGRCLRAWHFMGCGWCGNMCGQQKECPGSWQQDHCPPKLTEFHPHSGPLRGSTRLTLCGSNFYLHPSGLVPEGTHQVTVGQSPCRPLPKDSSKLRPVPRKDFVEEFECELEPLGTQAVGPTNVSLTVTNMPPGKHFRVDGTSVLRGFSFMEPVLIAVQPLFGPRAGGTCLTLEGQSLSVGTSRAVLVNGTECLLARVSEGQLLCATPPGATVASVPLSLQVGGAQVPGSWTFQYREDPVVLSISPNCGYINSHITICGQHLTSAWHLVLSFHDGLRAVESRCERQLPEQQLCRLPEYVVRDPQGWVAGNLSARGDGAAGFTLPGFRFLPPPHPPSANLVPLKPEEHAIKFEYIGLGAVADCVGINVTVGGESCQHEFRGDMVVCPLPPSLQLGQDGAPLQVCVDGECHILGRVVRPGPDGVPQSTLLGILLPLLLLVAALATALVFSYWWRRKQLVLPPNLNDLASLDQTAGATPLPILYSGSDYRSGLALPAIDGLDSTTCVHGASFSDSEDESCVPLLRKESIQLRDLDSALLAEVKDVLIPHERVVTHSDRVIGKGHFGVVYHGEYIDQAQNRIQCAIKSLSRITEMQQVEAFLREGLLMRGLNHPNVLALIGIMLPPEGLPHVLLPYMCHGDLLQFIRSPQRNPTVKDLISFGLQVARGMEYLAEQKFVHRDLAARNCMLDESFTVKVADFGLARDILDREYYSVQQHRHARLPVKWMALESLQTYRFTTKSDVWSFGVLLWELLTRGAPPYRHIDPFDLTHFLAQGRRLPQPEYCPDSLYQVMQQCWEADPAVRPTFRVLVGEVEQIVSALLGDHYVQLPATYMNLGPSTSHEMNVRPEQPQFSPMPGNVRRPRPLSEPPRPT

As to `Nc1nccc(Oc2ccc(NC(=O)c3ncn(-c4ccccc4)c3C(F)(F)F)cc2F)c1Cl` [Example 1, N-(4-((2-amino-3-chloropyridin-4-yl)oxy)-3-fluorophenyl)-1-phenyl-5-(trifluoromethyl)-1H-imidazole-4-carboxamide], the IC50 was 500 to 5000 nM on cMET and under 50 nM on RON.
The corresponding values for `Nc1nccc(Oc2ccc(NC(=O)c3cnn(-c4ccccc4)c3C(F)(F)F)cc2F)c1Cl` [Example 2, N-(4-((2-amino-3-chloropyridin-4-yl)oxy)-3-fluorophenyl)-1-phenyl-5-(trifluoromethyl)-1H-pyrazole-4-carboxamide] are 500 to 5000 nM and under 50 nM.
Taken in the same sequence, the figures for `Cc1c(C(=O)Nc2ccc(Oc3ccnc(N)c3Cl)c(F)c2)cnn1-c1ccccc1` [Example 3, N-(4-((2-amino-3-chloropyridin-4-yl)oxy)-3-fluorophenyl)-5-methyl-1-phenyl-1H-pyrazole-4-carboxamide] were 50 to 500 nM and 50 to 500 nM.
The corresponding values for `Cc1nn(-c2ccccc2)c(C)c1C(=O)Nc1ccc(Oc2ccnc(N)c2Cl)c(F)c1` [Example 4, N-(4-((2-amino-3-chloropyridin-4-yl)oxy)-3-fluorophenyl)-3,5-dimethyl-1-phenyl-1H-pyrazole-4-carboxamide] are over 5000 nM and 50 to 500 nM.
Turning to `CCc1c(C(=O)Nc2ccc(Oc3ccnc(N)c3Cl)c(F)c2)cnn1-c1ccccc1` [Example 5, N-(4-((2-amino-3-chloropyridin-4-yl)oxy)-3-fluorophenyl)-5-ethyl-1-phenyl-1H-pyrazole-4-carboxamide], the IC50 on cMET was in the range of 500 to 5000 nM; on RON it was 50 to 500 nM.
The corresponding values for `Nc1nccc(Oc2ccc(NC(=O)c3cnn(-c4ccccc4)c3C(F)F)cc2F)c1Cl` [Example 6, N-(4-((2-amino-3-chloropyridin-4-yl)oxy)-3-fluorophenyl)-5-(difluoromethyl)-1-phenyl-1H-pyrazole-4-carboxamide] are over 5000 nM and 50 to 500 nM.
The corresponding values for `Nc1nccc(Oc2ccc(NC(=O)c3cnn(-c4ccccc4)c3)cc2F)c1Cl` [Example 7, N-(4-((2-amino-3-chloropyridin-4-yl)oxy)-3-fluorophenyl)-1-phenyl-1H-pyrazole-4-carboxamide] are over 5000 nM and 500 to 5000 nM.
As for `Nc1nccc(Oc2ccc(NC(=O)c3cnn(C4CCCOC4)c3C(F)(F)F)cc2F)c1Cl` (stereo not shown) [Example 8, N-(4-((2-amino-3-chloropyridin-4-yl)oxy)-3-fluorophenyl)-1-(tetrahydro-2H-pyran-3-yl)-5-(trifluoromethyl)-1H-pyrazole-4-carboxamide], the IC50 is 500 to 5000 nM on cMET and 50 to 500 nM at RON.
The corresponding values for `Cn1ncc(C(=O)Nc2ccc(Oc3ccnc(N)c3Cl)c(F)c2)c1C(F)F` [Example 9, N-(4-((2-amino-3-chloropyridin-4-yl)oxy)-3-fluorophenyl)-5-(difluoromethyl)-1-methyl-1H-pyrazole-4-carboxamide] are over 5000 nM and 500 to 5000 nM.
The corresponding values for `Nc1nccc(Oc2ccc(NC(=O)c3cnn(-c4ccccc4)c3N)cc2F)c1Cl` [Example 10, 5-amino-N-(4-((2-amino-3-chloropyridin-4-yl)oxy)-3-fluorophenyl)-1-phenyl-1H-pyrazole-4-carboxamide] are over 5000 nM and 500 to 5000 nM.
Taken in the same sequence, the figures for `Nc1nccc(Oc2ccc(NC(=O)c3cnn(-c4ccc(F)cc4)c3C(F)(F)F)cc2F)c1Cl` [Example 11, N-(4-((2-amino-3-chloropyridin-4-yl)oxy)-3-fluorophenyl)-1-(4-fluorophenyl)-5-(trifluoromethyl)-1H-pyrazole-4-carboxamide] were over 5000 nM and 500 to 5000 nM.
As to `Nc1nccc(Oc2ccc(NC(=O)c3cnn(-c4ccccc4F)c3C(F)(F)F)cc2F)c1Cl` [Example 12, N-(4-((2-amino-3-chloropyridin-4-yl)oxy)-3-fluorophenyl)-1-(2-fluorophenyl)-5-(trifluoromethyl)-1H-pyrazole-4-carboxamide], the IC50 against cMET lay within 500 to 5000 nM; against RON, 50 to 500 nM.
Turning to `Nc1nccc(Oc2ccc(NC(=O)c3cnn(Cc4ccccc4)c3C(F)(F)F)cc2F)c1Cl` [Example 13, N-(4-((2-amino-3-chloropyridin-4-yl)oxy)-3-fluorophenyl)-1-benzyl-5-(trifluoromethyl)-1H-pyrazole-4-carboxamide], the IC50 against cMET and against RON was 500 to 5000 nM in each case.
For the compound `Cc1nc(C(=O)Nc2ccc(Oc3ccnc(N)c3Cl)c(F)c2)c(C)n1-c1ccccc1` [Example 14, N-(4-((2-amino-3-chloropyridin-4-yl)oxy)-3-fluorophenyl)-2,5-dimethyl-1-phenyl-1H-imidazole-4-carboxamide], the results for the IC50 against cMET and against RON were 500 to 5000 nM and 50 to 500 nM, respectively.
The corresponding values for `Cc1ccc(-n2ncc(C(=O)Nc3ccc(Oc4ccnc(N)c4Cl)c(F)c3)c2C(F)(F)F)cc1` [Example 15, N-(4-((2-amino-3-chloropyridin-4-yl)oxy)-3-fluorophenyl)-1-(p-tolyl)-5-(trifluoromethyl)-1H-pyrazole-4-carboxamide] are 500 to 5000 nM and over 5000 nM.
`COc1ccccc1-n1ncc(C(=O)Nc2ccc(Oc3ccnc(N)c3Cl)c(F)c2)c1C(F)(F)F` [Example 16, N-(4-((2-amino-3-chloropyridin-4-yl)oxy)-3-fluorophenyl)-1-(2-methoxyphenyl)-5-(trifluoromethyl)-1H-pyrazole-4-carboxamide]: the IC50 was over 5000 nM against cMET and 50 to 500 nM on RON.
The corresponding values for `CC(C)(C)n1ncc(C(=O)Nc2ccc(Oc3ccnc(N)c3Cl)c(F)c2)c1C(F)(F)F` [Example 17, N-(4-((2-amino-3-chloropyridin-4-yl)oxy)-3-fluorophenyl)-1-(tert-butyl)-5-(trifluoromethyl)-1H-pyrazole-4-carboxamide] are 500 to 5000 nM and 50 to 500 nM.
Taken in the same sequence, the figures for `Nc1nccc(Oc2ccc(NC(=O)c3cnn(-c4ccccc4)c3Cl)cc2F)c1Cl` [Example 18, N-(4-((2-amino-3-chloropyridin-4-yl)oxy)-3-fluorophenyl)-5-chloro-1-phenyl-1H-pyrazole-4-carboxamide] were 500 to 5000 nM and 50 to 500 nM.
Taken in the same sequence, the figures for `Nc1nccc(Oc2ccc(NC(=O)c3cnn(-c4ccccc4)c3-c3ccccc3)cc2F)c1Cl` [Example 19, N-(4-((2-amino-3-chloropyridin-4-yl)oxy)-3-fluorophenyl)-1,5-diphenyl-1H-pyrazole-4-carboxamide] were 500 to 5000 nM and 50 to 500 nM.
Regarding `Nc1nccc(Oc2ccc(NC(=O)c3cnn(-c4ccccc4)c3F)cc2F)c1Cl` [Example 20, N-(4-((2-amino-3-chloropyridin-4-yl)oxy)-3-fluorophenyl)-5-fluoro-1-phenyl-1H-pyrazole-4-carboxamide], the IC50 is over 5000 nM at cMET and 50 to 500 nM at RON.

The record behind these values is patent US20240316017A1, “NOVEL PYRIDINE DERIVATIVE COMPOUND AS RON INHIBITOR” (LG CHEM, LTD., priority 2021, published 2024).
